{"source": "patent US20250009713A1", "about": "(priority 2021, published 2025)", "key": {"[1]": {"test_system": "SARS-COV-2 US-WA1/2020 (NR-52281)", "test": "plaque assay of infectious virus released into culture medium, Vero cells", "format": "cell-based"}, "[2]": {"test_system": "SARS-COV-2 Japan/TY7-503/2021-Brazil_P.1 (NR-54982)", "test": "qRT-PCR of viral genome copies released into culture medium, Vero cells", "format": "cell-based"}, "[3]": {"test_system": "SARS-COV-2 (2019n-COV/USA-WA1/2020)", "format": "in vivo, K18-hACE2 mice", "conditions": "for reduction of infectious virus recovered from lung tissue: 7 days, Day 7, P<0.001"}, "[4]": {"test_system": "SARS-COV-2 Japan/TY7-503/2021-Brazil_P.1 (NR-54982)", "test": "plaque assay of infectious virus released into culture medium, Vero cells", "format": "cell-based"}, "[5]": {"test_system": "IL-6; IL-1a; IL-1B; TNFα; TGFβ; MCP-1", "format": "in vivo, K18-hACE2 mice", "conditions": "7 days post infection"}, "[6]": {"test_system": "six strains of SARS-COV-2", "test": "plaque assay, summary over six strains and two cell types", "format": "cell-based"}, "[7]": {"test_system": "SARS-COV-2 Japan/TY7-503/2021-Brazil_P.1 (NR-54982)", "test": "plaque assay of infectious virus released into culture medium, Calu-3 cells", "format": "cell-based"}, "[8]": {"test_system": "SARS-COV-2 Japan/TY7-503/2021-Brazil_P.1 (NR-54982)", "test": "qRT-PCR of viral genome copies released into culture medium, Calu-3 cells", "format": "cell-based"}, "[9]": {"test_system": "SARS-COV-2 (2019n-COV/USA-WA1/2020)", "format": "in vivo, K18-hACE2 mice", "conditions": "for reduction of viral load in lung: 7 days, Day 7"}, "[10]": {"test_system": "SARS-COV-2 US-WA1/2020 (NR-52281)", "test": "qRT-PCR of viral genome copies released into culture medium, Calu-3 cells", "format": "cell-based"}, "[11]": {"test_system": "six strains of SARS-COV-2", "test": "qRT-PCR assay, summary over six strains and two cell types", "format": "cell-based"}, "[12]": {"test_system": "SARS-COV-2 (2019n-COV/USA-WA1/2020)", "format": "in vivo, K18-hACE2 mice"}, "[13]": {"test_system": "SARS-COV-2 US-WA1/2020 (NR-52281)", "test": "plaque assay of infectious virus released into culture medium, Calu-3 cells", "format": "cell-based"}, "[14]": {"test_system": "SARS-COV-2 US-WA1/2020 (NR-52281)", "test": "qRT-PCR of viral genome copies released into culture medium, Vero cells", "format": "cell-based"}, "[15]": {"conditions": "Severe acute respiratory syndrome coronavirus 2, m.o.i 0.1, BIT225 added 1 hour pre-infection, 4 days post infection"}, "[16]": {"conditions": "Severe acute respiratory syndrome coronavirus 2, virus BR, m.o.i 0.1, BIT225 added 1 hour pre-infection, 4 days post infection"}, "[17]": {"conditions": "virus BR, log-logistic curve fit"}, "[18]": {"conditions": "300 mg/kg twice daily, day 5 (Experiment 3) or Day 12 (Experiment 2), 11 mice"}, "[19]": {"conditions": "Experiment 1, 100 mg/kg or 300 mg/kg for 7 days, vs vehicle"}, "[20]": {"conditions": "Severe acute respiratory syndrome coronavirus 2, virus WA1, m.o.i 0.1, BIT225 added 1 hour pre-infection, 4 days post infection"}, "[21]": {"conditions": "virus WA1, log-logistic curve fit"}}, "note": "Entries after “also recorded” stand apart in the source; their conditions may differ. Read-outs that look alike come from different tables or passages of the source.", "data": [{"smiles": "Cn1cc(-c2cccc3cc(C(=O)NC(=N)N)ccc23)cn1", "note": "[BIT225, N-carbamimidoyl-5-(1-methyl-1H-pyrazol-4-yl)-2-naphthamide]", "values": [{"measurement": "EC50", "setting": "[1]; [15]", "value": 4.09, "unit": "µM"}, {"measurement": "Max. Response (d)", "setting": "[1]; log-logistic curve fit", "value": 6.40, "unit": "log10"}, {"measurement": "Slope (b)", "setting": "[1]; log-logistic curve fit", "value": 1.45}, {"measurement": "EC50", "setting": "[2]; [16]", "value": 4.03, "unit": "µM"}, {"measurement": "Max. Response (d)", "setting": "[2]; [17]", "value": 3.53, "unit": "log10"}, {"measurement": "Slope (b)", "setting": "[2]; [17]", "value": 1.13}, {"measurement": "lung plaque counts", "setting": "[3]; [18]", "value": "< 200", "unit": "mL⁻¹"}, {"measurement": "infectious virus in serum", "setting": "[3]; [19]", "value": "significant reductions"}, {"measurement": "reduction of infectious virus recovered from lung tissue", "setting": "[3]; Experiment 1, 100 mg/kg twice daily", "value": "approximately 2000 PFU/mL"}, {"measurement": "reduction of infectious virus recovered from lung tissue", "setting": "[3]; Experiment 1, 300 mg/kg twice daily", "value": "~4000", "unit": "PFU/mL"}, {"measurement": "EC50", "setting": "[4]; [16]", "value": 6.36, "unit": "µM"}, {"measurement": "Max. Response (d)", "setting": "[4]; [17]", "value": 6.39, "unit": "log10"}, {"measurement": "Slope (b)", "setting": "[4]; [17]", "value": 1.67}, {"measurement": "IL-6 level, statistically significant (P<0.05) lower than vehicle control", "setting": "[5]; 100 mg/kg dose group", "value": "exception"}, {"measurement": "mean and median cytokine concentrations relative to vehicle control group", "setting": "[5]; high-dose BIT225 group (300 mg/kg)", "value": "less than half"}, {"measurement": "end-of-treatment levels of IL-6, IL-1a, IL-1B, TNFα, TGFβ and MCP-1", "setting": "[5]; lung and serum, 100 or 300 mg/kg twice daily, vs vehicle control", "value": "reduced"}, {"measurement": "EC50", "setting": "[6]; Severe acute respiratory syndrome coronavirus 2, read-out: EC50, range", "value": "3.4 to 7.9", "unit": "µM"}, {"measurement": "EC50", "setting": "[6]; Severe acute respiratory syndrome coronavirus 2, plaque assay, mean over six strains and two cell types, read-out: EC50, mean", "value": 6.2, "unit": "µM"}, {"measurement": "EC50", "setting": "[7]; [16]", "value": 5.79, "unit": "µM"}, {"measurement": "Max. Response (d)", "setting": "[7]; [17]", "value": 3.39, "unit": "log10"}, {"measurement": "Slope (b)", "setting": "[7]; [17]", "value": 1.36}, {"measurement": "EC50", "setting": "[8]; [16]", "value": 4.64, "unit": "µM"}, {"measurement": "Max. Response (d)", "setting": "[8]; [17]", "value": 2.53, "unit": "log10"}, {"measurement": "Slope (b)", "setting": "[8]; [17]", "value": 1.12}, {"measurement": "lung viral loads (qRT-PCR)", "setting": "[9]; [18]", "value": "at or below the limits of detection"}, {"measurement": "viral load in serum", "setting": "[9]; [19]", "value": "significant reductions"}, {"measurement": "reduction of viral load in lung", "setting": "[9]; Experiment 1, 100 mg/kg twice daily, vs vehicle, P<0.001", "value": "approximately 2 log 10"}, {"measurement": "reduction of viral load in lung", "setting": "[9]; Experiment 1, 300 mg/kg twice daily, vs vehicle", "value": "approximately 3.5 log 10"}, {"measurement": "EC50", "setting": "[10]; [20]", "value": 2.55, "unit": "µM"}, {"measurement": "Max. Response (d)", "setting": "[10]; [21]", "value": 2.41, "unit": "log10"}, {"measurement": "Slope (b)", "setting": "[10]; [21]", "value": 1.38}, {"measurement": "EC50", "setting": "[11]; Severe acute respiratory syndrome coronavirus 2, read-out: EC50 estimates, range", "value": "2.5 to 4.8", "unit": "µM"}, {"measurement": "EC50", "setting": "[11]; Severe acute respiratory syndrome coronavirus 2, qRT-PCR assay, mean over six strains and two cell types, read-out: EC50, mean", "value": 3.7, "unit": "µM"}, {"measurement": "survival to day 5 (Experiment 3) or Day 12 (Experiment 2)", "setting": "[12]; 11 mice, 300 mg/kg twice daily", "value": "all survived"}, {"measurement": "difference in body weight changes between the two BIT225 dosing levels", "setting": "[12]; Experiment 1, 100 mg/kg vs 300 mg/kg twice daily, 7 days", "value": "no significant difference"}, {"measurement": "difference between group-mean body weight changes, vehicle lower than combined BIT225 groups", "setting": "[12]; Experiment 1, day 5, P=0.01", "value": 3.8, "unit": "%"}, {"measurement": "difference between group-mean body weight changes, vehicle lower than combined BIT225 groups", "setting": "[12]; Experiment 1, day 6, P=0.001", "value": 6.4, "unit": "%"}, {"measurement": "mice with body weights greater than their pre-infection weights", "setting": "[12]; Experiment 1, day 7, 100 mg/kg or 300 mg/kg twice daily", "value": "all 10"}, {"measurement": "difference between group-mean body weight changes, vehicle lower than combined BIT225 groups", "setting": "[12]; Experiment 1, day 7, 95% CI [5.6-10.7], P=0.001", "value": 8.1, "unit": "%"}, {"measurement": "survival and weight gain to day 12", "setting": "[12]; Experiment 2, 300 mg/kg twice daily for 12 days, n=7, all vehicle mice died by day 9, P<0.001 log-rank, 300 mg/kg", "value": "all mice survived and continued to gain weight; also recorded: all seven mice in the BIT225 group survived"}, {"measurement": "health and weight change to Day 5", "setting": "[12]; Experiment 3, 300 mg/kg twice daily, 5 days, n=4", "value": "remained healthy and gained weight to Day 5"}, {"measurement": "survival, health and weight gain through day 12", "setting": "[12]; Experiment 4, 300 mg/kg twice daily starting 24 h post-infection, n=5, 300 mg/kg", "value": "remained healthy and continued gain weight as per age expectations through to day 12; also recorded: survived to Day 12"}, {"measurement": "survival, health and weight gain through day 12", "setting": "[12]; Experiment 4, 300 mg/kg twice daily starting 24 h pre-infection, n=5, 300 mg/kg", "value": "remained healthy and continued gain weight as per age expectations through to day 12; also recorded: survived to Day 12"}, {"measurement": "mice that died (day 11)", "setting": "[12]; Experiment 4, 300 mg/kg twice daily starting 48 h post-infection, n=5, 300 mg/kg", "value": "One of the five; also recorded: one mouse"}, {"measurement": "mice that continued to gain body weight", "setting": "[12]; across three experiments, 12 hourly oral doses of BIT225 (100 or 300 mg/kg), intranasal", "value": "21 out of 21"}, {"measurement": "EC50", "setting": "[13]; [15]", "value": 3.43, "unit": "µM"}, {"measurement": "Max. Response (d)", "setting": "[13]; log-logistic curve fit", "value": 3.38, "unit": "log10"}, {"measurement": "Slope (b)", "setting": "[13]; log-logistic curve fit", "value": 1.31}, {"measurement": "EC50", "setting": "[14]; [20]", "value": 2.53, "unit": "µM"}, {"measurement": "Max. Response (d)", "setting": "[14]; [21]", "value": 3.29, "unit": "log10"}, {"measurement": "Slope (b)", "setting": "[14]; [21]", "value": 1.79}]}]}
